Where only a bound is given, the exact number is not on record here.

These results are taken from article PMC5513037, “Examining the influence of specificity ligands and ATP-competitive ligands on the overall effectiveness of bivalent kinase inhibitors” (Proteome Science, 2017).

Common to all, as to assay: KAM-matrix competition in K562 lysate
Common to all, as to type: binding

Experiment [1] concerns the target T1, PHKG2 (Homo sapiens, UniProt P15735).
T1 construct: endogenous in cells; host or cells: K562 cell lysate
T1 sequence (P15735 1-406): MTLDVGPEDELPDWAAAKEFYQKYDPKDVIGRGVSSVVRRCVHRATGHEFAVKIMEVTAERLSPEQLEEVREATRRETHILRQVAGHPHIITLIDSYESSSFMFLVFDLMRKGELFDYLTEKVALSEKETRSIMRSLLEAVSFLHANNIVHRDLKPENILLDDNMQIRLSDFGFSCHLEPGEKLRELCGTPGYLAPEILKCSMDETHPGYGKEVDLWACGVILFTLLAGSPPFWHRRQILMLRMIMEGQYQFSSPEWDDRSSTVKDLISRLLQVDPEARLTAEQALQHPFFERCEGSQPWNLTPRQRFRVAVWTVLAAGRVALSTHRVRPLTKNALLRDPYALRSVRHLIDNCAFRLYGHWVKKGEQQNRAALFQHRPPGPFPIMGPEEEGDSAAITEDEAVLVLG
As to the method: (§1) Supplement 12953_2017_125_MOESM1_ESM.zip/MS_Supp Info.xlsx, sheet "KAM" | column: 10 uM KAM; 1 uM KAM; 0.1 uM KAM; 0.01 uM KAM; 0.001 uM KAM; RB50

Experiment [2] addresses T2, RPS6KA4 (Homo sapiens, UniProt O75676).
T2 construct: endogenous in cells; host or cells: K562
As for the experimental part:
as §1

Experiment [3] concerns the target T3, TAOK1 (Homo sapiens, UniProt Q7L7X3).
T3 construct: endogenous in cells; host or cells: K562 cell lysate
T3 sequence (Q7L7X3 1-1001): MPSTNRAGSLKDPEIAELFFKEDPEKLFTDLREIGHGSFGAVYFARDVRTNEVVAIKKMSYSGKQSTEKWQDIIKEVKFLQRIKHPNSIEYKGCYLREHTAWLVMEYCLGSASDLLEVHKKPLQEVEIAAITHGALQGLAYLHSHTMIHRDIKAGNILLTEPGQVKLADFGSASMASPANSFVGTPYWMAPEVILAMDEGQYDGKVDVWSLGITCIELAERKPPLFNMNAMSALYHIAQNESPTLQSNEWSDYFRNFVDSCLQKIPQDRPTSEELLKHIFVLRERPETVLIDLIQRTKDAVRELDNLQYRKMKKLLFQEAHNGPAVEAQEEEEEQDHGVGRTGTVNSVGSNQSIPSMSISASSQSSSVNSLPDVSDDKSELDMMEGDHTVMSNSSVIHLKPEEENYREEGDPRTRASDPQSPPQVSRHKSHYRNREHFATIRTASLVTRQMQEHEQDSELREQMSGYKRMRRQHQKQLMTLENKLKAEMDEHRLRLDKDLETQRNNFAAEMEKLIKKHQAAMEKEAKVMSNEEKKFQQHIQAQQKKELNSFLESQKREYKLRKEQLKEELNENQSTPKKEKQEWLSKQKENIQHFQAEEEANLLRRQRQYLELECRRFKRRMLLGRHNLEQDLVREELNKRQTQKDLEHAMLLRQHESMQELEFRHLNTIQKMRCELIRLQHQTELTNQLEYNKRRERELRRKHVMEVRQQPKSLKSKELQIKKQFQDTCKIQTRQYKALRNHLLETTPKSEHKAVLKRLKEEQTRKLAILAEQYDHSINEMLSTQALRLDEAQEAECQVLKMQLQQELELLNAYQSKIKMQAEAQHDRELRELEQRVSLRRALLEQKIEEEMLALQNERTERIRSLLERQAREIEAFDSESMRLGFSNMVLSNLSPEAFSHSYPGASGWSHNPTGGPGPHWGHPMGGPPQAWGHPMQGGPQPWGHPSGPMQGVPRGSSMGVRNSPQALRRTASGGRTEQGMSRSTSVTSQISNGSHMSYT
As for the experimental part:
as §1

For experiment [4], the target named is T4, TTK (Homo sapiens, UniProt P33981).
T4 construct: endogenous in cells; host or cells: K562
T4 sequence (P33981 1-857): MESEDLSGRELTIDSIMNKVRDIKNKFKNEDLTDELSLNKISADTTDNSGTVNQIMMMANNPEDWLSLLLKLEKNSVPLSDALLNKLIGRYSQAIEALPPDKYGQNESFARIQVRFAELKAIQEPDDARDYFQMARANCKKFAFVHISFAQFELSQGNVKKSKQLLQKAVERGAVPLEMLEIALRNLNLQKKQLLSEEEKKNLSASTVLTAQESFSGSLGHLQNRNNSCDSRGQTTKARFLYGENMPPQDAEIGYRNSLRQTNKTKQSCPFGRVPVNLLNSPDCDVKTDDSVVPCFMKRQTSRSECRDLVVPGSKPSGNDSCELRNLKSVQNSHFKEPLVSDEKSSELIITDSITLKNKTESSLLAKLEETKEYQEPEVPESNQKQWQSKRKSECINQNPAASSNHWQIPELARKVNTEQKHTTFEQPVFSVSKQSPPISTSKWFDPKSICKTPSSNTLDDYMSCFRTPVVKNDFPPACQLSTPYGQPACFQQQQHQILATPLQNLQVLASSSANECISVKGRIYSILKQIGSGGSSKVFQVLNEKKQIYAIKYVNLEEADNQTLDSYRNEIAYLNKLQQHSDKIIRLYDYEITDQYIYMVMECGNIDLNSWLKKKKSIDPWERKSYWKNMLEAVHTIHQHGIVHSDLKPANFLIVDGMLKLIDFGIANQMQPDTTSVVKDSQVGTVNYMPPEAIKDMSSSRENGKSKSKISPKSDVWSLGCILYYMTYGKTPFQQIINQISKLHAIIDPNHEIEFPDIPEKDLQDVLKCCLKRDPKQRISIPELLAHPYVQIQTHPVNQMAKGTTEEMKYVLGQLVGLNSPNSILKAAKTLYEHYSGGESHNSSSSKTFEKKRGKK
As for the experimental part:
as §1

Setting [5] is: read-out: RB50 (the source's name).
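For 0.001 uM KAM in this document: median log10 fold change of treatment over DMSO control.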
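For 0.01 uM KAM in this document: median log10 fold change of treatment over DMSO control.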
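For 0.1 uM KAM in this document: median log10 fold change of treatment over DMSO control.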
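For 1 uM KAM in this document: median log10 fold change of treatment over DMSO control.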
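For 10 uM KAM in this document: median log10 fold change of treatment over DMSO control.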

T2 sequence (O75676 whole entry): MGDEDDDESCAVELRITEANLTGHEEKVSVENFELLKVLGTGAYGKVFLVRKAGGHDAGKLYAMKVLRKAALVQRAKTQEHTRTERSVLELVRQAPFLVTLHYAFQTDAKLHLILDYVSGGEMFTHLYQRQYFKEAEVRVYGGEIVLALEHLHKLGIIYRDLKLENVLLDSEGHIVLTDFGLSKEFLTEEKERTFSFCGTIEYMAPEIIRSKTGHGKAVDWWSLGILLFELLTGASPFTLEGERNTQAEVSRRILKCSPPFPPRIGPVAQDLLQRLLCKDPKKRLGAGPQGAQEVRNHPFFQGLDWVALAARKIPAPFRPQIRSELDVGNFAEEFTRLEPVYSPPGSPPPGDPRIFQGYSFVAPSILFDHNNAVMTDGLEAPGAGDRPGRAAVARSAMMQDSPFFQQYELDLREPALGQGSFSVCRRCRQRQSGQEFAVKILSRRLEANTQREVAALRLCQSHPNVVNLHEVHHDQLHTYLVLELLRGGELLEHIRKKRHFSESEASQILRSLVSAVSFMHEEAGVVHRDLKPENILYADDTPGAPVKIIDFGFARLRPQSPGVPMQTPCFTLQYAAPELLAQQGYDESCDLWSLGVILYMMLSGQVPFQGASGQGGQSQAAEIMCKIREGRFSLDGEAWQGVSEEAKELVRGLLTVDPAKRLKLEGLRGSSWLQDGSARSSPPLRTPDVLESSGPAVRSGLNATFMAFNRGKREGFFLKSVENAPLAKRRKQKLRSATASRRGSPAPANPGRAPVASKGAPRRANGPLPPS

As to `N#CCc1ccc(Nc2nc(NCCCN)cc(Nc3cc(C4CC4)[nH]n3)n2)cc1` [KAM], the “median Log10 fold change” value in experiment [1] (0.001 uM KAM) was 0.003099; in experiment [1] (0.01 uM KAM), -0.03027; in experiment [1] (0.1 uM KAM), -0.2223; in experiment [1] (1 uM KAM), -0.4221; in experiment [1] (10 uM KAM), -0.5566; in experiment [2] (0.001 uM KAM), 0.007656. Besides, the “median Log10 fold change” value in experiment [2] (0.01 uM KAM) is reported as -0.02452; in experiment [2] (0.1 uM KAM), -0.1561; in experiment [2] (1 uM KAM), -0.4146; in experiment [2] (10 uM KAM), -0.4828; in experiment [3] (0.001 uM KAM), 0.00525; in experiment [3] (0.01 uM KAM), 0.00511. The “median Log10 fold change” value is on record as -0.09468 in experiment [3] (0.1 uM KAM), -0.2373 in experiment [3] (1 uM KAM) and -0.3152 in experiment [3] (10 uM KAM). In addition, the IC50 is 338 nM in experiment [1] (setting [5]); 558 nM in experiment [2] (setting [5]); 4150 nM in experiment [3] (setting [5]); above 10000 nM in experiment [4] (KAM 0.001-10 uM, read-out: RB50 (the source's name)). The “0.001 uM KAM” value in experiment [4] (relative to 0 uM KAM = 0) is reported as -0.02414. Besides, in experiment [4] (relative to 0 uM KAM = 0), the “0.01 uM KAM” value is 0.009793. Moreover, the “0.1 uM KAM” value in experiment [4] (relative to 0 uM KAM = 0) is recorded as -0.08807. Besides, the “1 uM KAM” value in experiment [4] (relative to 0 uM KAM = 0) was -0.1446. Moreover, the “10 uM KAM” value in experiment [4] (relative to 0 uM KAM = 0) was -0.2103.
